# Test results reported in ChEMBL document CHEMBL1201862, “PubChem BioAssay data set” (2004).
#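 Dose response: 5 concentrations. Exposure: 48 h. Format: 96-well plates. Endpoint: linear interpolation; highest concentration if not reached. GI50: concentration for 50% inhibition of growth.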 Active and inactive are the calls of the source. Cut-off read from the data, not from the text of the source: active = GI50 up to about 1.1 µM and inactive = higher.
# Legend:
# Experiment in all cases: growth of human tumour cells (NCI), 48 h
# KM12 = test system: KM12
# SNB-19 = test system: SNB-19
# NCI-H226 = test system: NCI-H226
# ACHN = test system: ACHN
# IGROV-1 = test system: IGROV-1
# HOP-92 = test system: HOP-92
# K562 = test system: K562
# 786-0 = test system: 786-0
# NCI-H23 = test system: NCI-H23
# OVCAR-8 = test system: OVCAR-8
# EKVX = test system: EKVX
# SN12C = test system: SN12C
# BT-549 = test system: BT-549
# HOP-62 = test system: HOP-62
# M14 = test system: M14
# HCT-116 = test system: HCT-116
# OVCAR-4 = test system: OVCAR-4
# HL-60 = test system: HL-60
# PC-3 = test system: PC-3
Structure (SMILES),GI50 (KM12),GI50 (SNB-19),GI50 (NCI-H226),GI50 (ACHN),GI50 (IGROV-1),GI50 (HOP-92),GI50 (K562),GI50 (786-0),GI50 (NCI-H23),GI50 (OVCAR-8),GI50 (EKVX),GI50 (SN12C),GI50 (BT-549),GI50 (HOP-62),GI50 (M14),GI50 (HCT-116),GI50 (OVCAR-4),GI50 (HL-60),GI50 (PC-3)
COc1ccc(/C=C/CO)cc1OC,> 100 µM (inactive),> 100 µM (inactive),49.9 µM (inactive),> 100 µM (inactive),> 100 µM (inactive),56.8 µM (inactive),> 100 µM (inactive),> 100 µM (inactive),> 100 µM (inactive),> 100 µM (inactive),> 100 µM (inactive),> 100 µM (inactive),–,–,–,–,–,–,–
Cc1n[nH]c(=O)n1/N=C/c1ccc(Cl)cc1,> 100 µM (inactive),61.9 µM (inactive),–,> 100 µM (inactive),–,32.9 µM (inactive),> 100 µM (inactive),> 100 µM (inactive),27.9 µM (inactive),83.6 µM (inactive),13.3 µM (inactive),70.6 µM (inactive),23.1 µM (inactive),32.5 µM (inactive),> 100 µM (inactive),64.4 µM (inactive),98.4 µM (inactive),–,–
C=C1C2C[C@@H]3OC4CC5O[C@]6(CC5OC4C(C)C3OC(=O)CC3CC[C@@H]4OC5C7OC8C[C@](CCC9CC(=C)[C@H](CCC(C[C@H]1C)O2)O9)(OC7C4O3)O[C@@H]85)C[C@@H]1O[C@@]2(CC(C)[C@@H]3OC(CC(=O)CCO)C(O)C[C@@H]3O2)CC(C)[C@@H]1O6 (stereo partly drawn),< 0.001 µM (active),< 0.001 µM (active),< 0.001 µM (active),< 0.001 µM (active),< 0.001 µM (active),< 0.001 µM (active),< 0.001 µM (active),< 0.001 µM (active),< 0.001 µM (active),< 0.001 µM (active),–,< 0.001 µM (active),–,< 0.001 µM (active),< 0.001 µM (active),< 0.001 µM (active),< 0.001 µM (active),–,–
COc1ccccc1Cn1[nH]c(=O)c2cc([N+](=O)[O-])ccc21,> 100 µM (inactive),61.2 µM (inactive),> 100 µM (inactive),75 µM (inactive),43.5 µM (inactive),24.7 µM (inactive),51.6 µM (inactive),42 µM (inactive),> 100 µM (inactive),> 100 µM (inactive),> 100 µM (inactive),> 100 µM (inactive),–,> 100 µM (inactive),> 100 µM (inactive),> 100 µM (inactive),> 100 µM (inactive),86.5 µM (inactive),–
O=c1/c(=C/c2ccc3c(c2)OCO3)sc2nnc(-c3ccco3)n12,> 100 µM (inactive),> 100 µM (inactive),> 100 µM (inactive),> 100 µM (inactive),> 100 µM (inactive),–,> 100 µM (inactive),> 100 µM (inactive),> 100 µM (inactive),> 100 µM (inactive),> 100 µM (inactive),> 100 µM (inactive),–,> 100 µM (inactive),> 100 µM (inactive),> 100 µM (inactive),> 100 µM (inactive),> 100 µM (inactive),–
O=C(c1ccccc1)N1CCN(C(=S)NC2CCCCC2)C1=S,16 µM (inactive),–,14.7 µM (inactive),24.3 µM (inactive),24.2 µM (inactive),15.5 µM (inactive),33.3 µM (inactive),21.8 µM (inactive),15.9 µM (inactive),17 µM (inactive),16.1 µM (inactive),17.8 µM (inactive),17.1 µM (inactive),18 µM (inactive),16.8 µM (inactive),16.1 µM (inactive),18.9 µM (inactive),21.9 µM (inactive),–
CC[C@]12C=CCN3CC[C@@]4(c5cc(Br)c(OC)cc5N(C)[C@H]4[C@@](O)(C(=O)N[C@@H](Cc4ccc(O)cc4)C(=O)OC)[C@@H]1O)[C@@H]32,11.3 µM (inactive),> 100 µM (inactive),–,27.6 µM (inactive),19.5 µM (inactive),–,43 µM (inactive),49.9 µM (inactive),52.4 µM (inactive),24.9 µM (inactive),29.2 µM (inactive),16.5 µM (inactive),20.7 µM (inactive),46.5 µM (inactive),28 µM (inactive),34.8 µM (inactive),14.7 µM (inactive),26.7 µM (inactive),39 µM (inactive)
c1ccc(C2C3=C(CCCC3)Nc3nnnn32)cc1 (stereo not drawn),> 100 µM (inactive),> 100 µM (inactive),–,82.4 µM (inactive),> 100 µM (inactive),–,32.4 µM (inactive),> 100 µM (inactive),> 100 µM (inactive),> 100 µM (inactive),–,> 100 µM (inactive),34.8 µM (inactive),> 100 µM (inactive),> 100 µM (inactive),> 100 µM (inactive),–,33.1 µM (inactive),68.1 µM (inactive)
NCCOCCOCC(=O)O,> 100 µM (inactive),> 100 µM (inactive),> 100 µM (inactive),> 100 µM (inactive),> 100 µM (inactive),> 100 µM (inactive),> 100 µM (inactive),> 100 µM (inactive),> 100 µM (inactive),> 100 µM (inactive),> 100 µM (inactive),> 100 µM (inactive),–,–,–,> 100 µM (inactive),> 100 µM (inactive),–,–
